According to patent US7419984B2, “Pyrimidines and uses thereof” (Cell Therapeutics, Inc., priority 2002, dated 2008):

molecular target: T1, human LPAAT-β (Homo sapiens, UniProt O15120); test: LPAAT-β cell-free assay; assay type: biochemical; settings: Sf9 cell membrane overexpressing recombinant LPAAT-β
T1 construct: the full-length human LPAAT-β cDNA was amplified by PCR; poly-histidine tag (N); made in house; host or cells: Sf9 insect cells (baculovirus, pFastBac HTc); the membrane fraction was used as the enzyme
T1 sequence (O15120 24-278): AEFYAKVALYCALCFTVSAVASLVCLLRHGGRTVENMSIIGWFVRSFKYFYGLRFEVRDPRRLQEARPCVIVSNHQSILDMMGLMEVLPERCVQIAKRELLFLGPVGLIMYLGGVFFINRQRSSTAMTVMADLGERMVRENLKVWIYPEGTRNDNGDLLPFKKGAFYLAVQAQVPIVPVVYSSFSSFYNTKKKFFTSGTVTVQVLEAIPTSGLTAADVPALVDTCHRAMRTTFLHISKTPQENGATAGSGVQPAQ
Description: For the construction of Baculovirus expression vectors, the full-length human LPAAT-β cDNA was amplified by PCR from the DNA template pCE9.LPAAT-β (West et al., DNA Cell Bid. 16.691-701 (1997)) using the primers 5′-[…] […] […] […]-3′ (olpb1F; SEQ ID NO:1) and 5′-[…] […] […]-3′ (olpb1R; SEQ ID NO:2). The ˜870 bp fragment generated was reamplified by PCR using the primers 5′ […] […] […] […] ATC-3′ (olpb2F; SEQ ID NO:3) and 5′-[…] […] […]-3′ (olpb1R; SEQ ID NO:2). The ˜890 bp fragment generated was then cleaved with Sal I and Xba I for insertion into pFastBac™ HTc vector (Life Technologies, Gaithersberg, M.d.) between the Sal I and Xba I sites for the generation of the plasmid pFB.LPAAT-β. This plasmid was then transformed into E. coli DH10Bac™ (Life Technologies, Gaithersberg, M.d.) for the generation of recombinant Bacmid DNA for transfection in HighFive (Invitrogen, San Diego, Calif.) or SF9 insect cells for the production of recombinant Baculovirus stocks using the protocol described in the Bac-to-Bac® Baculovirus Expression System (Life Technologies, Gaithersberg, M.d.), a eukaryotic expression system for generating recombinant baculovirus through site-specific transposition in E. coli. Viral stocks harvested from the transfected cells can then be used to infect fresh insect cells for the subsequence expression of LPAAT-β fusion protein with a poly-histidine tag and a myc-epitope near its N-terminus. The membrane fraction from these Sf9 cells would be the source of LPAAT enzyme.
For the preparation of membranes from Sf9 Cells, all steps are performed on ice or at 4° C. Sf9 cell pellets (˜10^8 cells) were thawed and resuspended in 1-2 ml of buffer A (20 mM Hepes, pH 7.5, 1 mM DTT, 1 mM EDTA, 20% w/v glycerol, 1 mM Benzamidine, 1 μg/ml soybean trypsin inhibitor (SBTI), 1 μug/ml pepstatin A) w/o DTT but with 1 mM Pefabloc. The cells were lysed by sonication using a Branson Sonifier at output=2, duty cycle=2, 10 pulses each at 10 s. with the tip of small sonicator probe submerged but not touching the walls. DTT was then added to 1 mM from a 1 M stock. The samples were centrifuged at 1500 rpm for 5 min. The low speed supernatant was saved and centrifuged (TLA 100.3 rotor, polycarbonate tubes, 2 ml/tube or 1.5 ml/tube minimum) at 100000×g for 1 hr. The high speed pellet was resuspend in Buffer A with a probe sonicator (10 pulses @ output #2 and duty cycle 20%) as a source of LPAAT enzyme.
LPAAT-β catalyzes the transfer of an acyl group from a donor such as acyl-CoA to LPA. The transfer of the acyl group from acyl-CoA to LPA leads to the release of free CoA, which can be reacted with the thiol reagent, 5,5′-dithiobis(2-nitrobenzoic acid) (DTNB). The reaction between DTNB and the free sulfhydryl group from CoA generates a yellow-colored product, 3-carboxylato-4-nitrothiophenolate (CNP), that absorbs at 413 nm. LPAAT-β derived from Sf9 cell membrane overexpressing LPAAT-β were resuspended in HEPES saline buffer (20 mM HEPES pH 7.5, 150 mM NaCl), 1 mg/ml BSA and 72 μl aliquots were distributed into 96-well microtiter plates. 8 μl of compound of interest at 200 μM dissolved in 100% DMSO was added into each well. […] of 1 mM 18:1-CoA and 1 mM sn-1-18:1 lysoPA was then added to each well to initiate the reaction and allowed to run at room temperature for 25 min. 100 μl of 1 mM DTNB in 100% ethanol was then added to each well to quench the reaction and for color development. The absorbance at 405 nm, measured using a spectrophotometer plate reader, is proportional to the activity of LPAAT-2 in the sample. This colorimetric assay was used for the high throughput screening of LPAAT inhibitors.
The radiometric assay was carried out in Sf9 cell membrane overexpressing LPAAT-β resuspended in HEPES-saline buffer, pH 7.5, 1 mg/ml BSA, 1 mM EDTA and 200 μM [^14C]18:1-CoA and 200 μM sn-1-18:1 lysoPA.

In order of rising IC50:
1. COc1ccc(Cl)cc1-c1cc(Nc2ccc([N+](=O)[O-])cc2)nc(N)n1 [Example 11, 6-(5-Chloro-2-methoxy-phenyl)-N*4*-(4-nitro-phenyl)-pyrimidine-2,4-diamine]  14 nM
2. Nc1nc(Nc2ccc(Br)cc2)cc(-c2cc(Cl)ccc2Cl)n1 [Example 14, N*4*-(4-Bromo-phenyl)-6-(2,5-dichloro-phenyl)-pyrimidine-2,4-diamine]  26 nM
3. COc1ccc(Cl)cc1-c1cc(Nc2ccc(Br)cc2)nc(N)n1 [Example 5, N*4*-(4-Bromo-phenyl)-6-(5-chloro-2-methoxy-phenyl)-pyrimidine-2,4-diamine]  29 nM
4. Cc1ccc(Nc2cc(-c3cc(Cl)ccc3Cl)nc(N)n2)cc1 [Example 15, 6-(2,5-Dichloro-phenyl)-N*4*-p-tolyl-pyrimidine-2,4-diamine]  50 nM
5. COc1ccc(Cl)cc1-c1cc(Nc2ccc(Cl)cc2)nc(N)n1 [Example 2, 6-(5-Chloro-2-methoxy-phenyl)-N*4*-(4-chloro-phenyl)-pyrimidine-2,4-diamine]  54 nM
6. COc1ccc(Cl)cc1-c1cc(Nc2ccc3cn[nH]c3c2)nc(N)n1 [Example 3, 6-(5-Chloro-2-methoxy-phenyl)-N*4*-(1H-indazol-6-yl)-pyrimidine-2,4-diamine]  80 nM
7. Nc1nc(Nc2ccc(C(F)(F)F)cc2)cc(-c2cc(Cl)ccc2Cl)n1 [Example 18, 6-(2,5-Dichloro-phenyl)-N*4*-(4-trifuoromethyl-phenyl)-pyrimidine-2,4-diamine]  82 nM
8. COc1ccc(Cl)cc1-c1cc(Nc2ccc(C(F)(F)F)cc2)nc(N)n1 [Example 4, 6-(5-Chloro-2-methoxy-phenyl)-N*4*-(4-trifluoromethylphenyl)-pyrimidine-2,4-diamine]  88 nM
9. COc1ccc(Cl)cc1-c1cc(Nc2ccc(N)cc2)nc(N)n1 [Example 12, N*4*-(4-Amino-phenyl)-6-(5-chloro-2-methoxy-phenyl)-pyrimidine-2,4-diamine]  95 nM
10. COc1ccc(Cl)cc1-c1cc(Nc2ccc3c(c2)OCO3)nc(N)n1 [Example 13, N*4*-Benzo [1,3]dioxol-5-yl-6-(5-chloro-2-methoxy-phenyl)-pyrimidine-2,4-diamine]  100 nM
11. COc1ccc(Cl)cc1-c1cc(Nc2ccc(C)cc2)nc(N)n1 [Example 1, 6-(5-Chloro-2-methoxy-phenyl)-N*4*-p-tolyl-pyrimidine-2,4-diamine]  120 nM
12. COc1ccc(Cl)cc1-c1cc(Nc2ccc(CO)cc2)nc(N)n1 [Example 10, {4-[2-Amino-6-(5-chloro-2-methoxy-phenyl)-pyrimidin4-ylamino]-phenyl}-methanol]  120 nM
13. COc1ccc(Nc2cc(-c3cc(Cl)ccc3Cl)nc(N)n2)cc1 [Example 16, 6-(2,5-Dichloro-phenyl)-N*4*-(4-methoxy-phenyl)-pyrimidine-2,4-diamine]  120 nM
14. Nc1nc(Nc2ccc(O)cc2)cc(-c2cc(Cl)ccc2Cl)n1 [Example 17, 4-[2-Amino-6-(2,5-dichloro-phenyl)-pyrimidin-4-ylamino]-phenol]  240 nM
15. COc1ccc(Cl)cc1-c1cc(Nc2ccc3ncsc3c2)nc(N)n1 [Example 8, N*4*-Benzothiazol-6-yl-6-(5-chloro-2-methoxy-phenyl)-pyrimidine-2,4-diamine]  270 nM
16. COc1ccc(Nc2cc(-c3cc(Cl)ccc3OC)nc(N)n2)cc1 [Example 7, 6-(5-Chloro-2-methoxy-phenyl)-N*4*-(4-methoxy-phenyl)-pyrimidine-2,4-diamine]  410 nM
17. COc1ccc(Cl)cc1-c1cc(Nc2ccc(O)cc2)nc(N)n1 [Example 6, 4-[2-Amino-6-(5-chloro-2-methoxy-phenyl)-pyrimidin-4-ylamino]-phenol]  450 nM
18. COC(=O)c1ccc(Nc2cc(-c3cc(Cl)ccc3OC)nc(N)n2)cc1 [Example 9, 4-[2-Amino-6-(5-chloro-2-methoxy-phenyl)-pyrimidin-4-ylamino]-benzoic acid methyl ester]  600 nM
